Where a SMILES comes first, the peptide text is derived from it. [ ]: non-standard residue; d: D form. dNMeI = CC[C@@H](C)[C@@H](NC)C(=O)O; NMeF = CN[C@@H](Cc1ccccc1)C(=O)O; dNMeL = CN[C@H](CC(C)C)C(=O)O
What was measured:
[1] = Caco-2 permeability assay (apical to basolateral); format: in vitro ADME, human; settings: for Papp A→B: Caco-2, Caco_Papp_Average
Procedure: (§1) Human colon adenocarcinoma-derived Caco-2 cell line was used as a model system to investigate the intestinal epithelial permeability of our designs. Caco-2 cells were propagated in T125 flasks (Corning, Merck) using Dulbecco’s modified Eagle medium supplemented with 10% (v/v) fetal bovine serum, 1% (v/v) nonessential amino acids, and 1% (v/v) penicillin-streptomycin (Gibco, Thermo Fisher Scientific) at 37°C in an atmosphere of 5% CO2. Cells were subcultured when they reached 80% confluence.
(§2) The permeability of designed peptides was evaluated using an accelerated 6-day Caco-2 permeability assay as described previously ([Sevin et al., 2013]). In brief, cells were seeded into the 12-well Transwell plates with 0.4 μm polyester membrane inserts (Corning, Merck) to give 4.0 × 10^5 cells/well. The complete assay medium contained Dulbecco’s modified Eagle medium supplemented with 10% (v/v) fetal bovine serum, 1% (v/v) nonessential amino acids, and 0.4 μg/mL puromycin. The medium in plates was renewed every second day. The inserts received 0.75 mL of assay medium in the upper compartment (apical chamber) and 1.5 mL in the bottom compartment (basolateral chamber) individually. After 6-day incubation or until the cells formed monolayers, the medium in the apical and basolateral chamber was replaced with peptide solutions at 50 μM or Hanks' Balanced Salt Solution (HBSS), separately. The plates were incubated for 90 min at 37°C on an orbital shaker (60 rpm). The peptide concentration of solutions in the apical and basolateral compartments was subsequently quantified using LC-MS (Qstar Elite, AB Sciex Australia) to evaluate the transmembrane flux of peptides in the apical-to-basolateral direction. Membrane integrity of the Caco-2 cell monolayer was validated using trans-epithelial electrical resistance (TEER) measurements before and after the assays. Atenolol and quinidine were included as negative and positive controls in all assays.

[2] = test system: Caco-2 cells; experiment: Caco-2 permeability assay (apical to basolateral); format: in vitro ADME, human; settings: Caco-2
Procedure: as §1, §2

[3] = PAMPA
[4] = in vitro; settings: PAMPA, PAMPA_Papp_Avg

| Compound | Papp A→B [1] [×10⁻⁶ cm/s] | Caco_R1 [2] | Caco_R3 [2] | PAMPA_Papp_Avg [3] | PAMPA_R1 [3] | PAMPA_R3 [3] | Papp [4] [×10⁻⁶ cm/s] | Papp ([1]; Caco-2) [×10⁻⁶ cm/s] |
| --- | --- | --- | --- | --- | --- | --- | --- | --- |
| CC[C@@H](C)[C@H]1NC(=O)[C@@H](CC(C)C)NC(=O)[C@@H](CC(C)C)N(C)C(=O)[C@@H]2CCCN2C(=O)[C@@H](C(C)C)NC(=O)[C@@H](CC(C)C)NC(=O)[C@@H](CC(C)C)N(C)C(=O)[C@@H]2CCCN2C1=O [Design D8.3.p2, DLEU DVAL PRO *DLEU DLEU DILE PRO *DLEU] (cyclo(P[dNMeL][dL][dI]P[dNMeL][dL][dV])) | 2.73 | 4.06 | 1.54 | BQL | BQL | BQL |  |  |
| CC[C@H](C)[C@@H]1NC(=O)[C@@H](CC(C)C)NC(=O)[C@H](CC(C)C)N(C)C(=O)[C@H](Cc2ccccc2)NC(=O)CN(C)C(=O)[C@@H]2CCCN2C(=O)[C@H](C(C)C)NC(=O)[C@H](Cc2ccccc2)N(C)C(=O)[C@H]2CCCN2C(=O)[C@H](CC(C)C)NC1=O (single isomer, unassigned) [Design D10.1.p1, DLEU ILE LEU DPRO *PHE VAL PRO *GLY PHE *LEU] | 8.65 | 8.51 | 8.51 |  | 4.75E-06 | 3.42E-06 | 3.92 |  |
| CC(C)C[C@@H]1NC(=O)[C@@H](CC(C)C)NC(=O)[C@H]2CCCN2C(=O)[C@H](CC(C)C)NC(=O)[C@@H](CC(C)C)NC(=O)[C@H](CC(C)C)NC(=O)[C@@H]2CCCN2C(=O)[C@@H](C)NC1=O [Design D8.1, DLEU LEU DPRO DLEU LEU DALA PRO LEU] (cyclo(L[dA]PL[dL]L[dP][dL])) | 23.3 | 27.58 | 23.71 |  | 7.08E-06 | 6.42E-06 | 6.94 | 23.3 |
| CC[C@@H](C)[C@H]1NC(=O)[C@H]([C@@H](C)CC)NC(=O)[C@H](Cc2ccccc2)N(C)C(=O)[C@H]2CCCN2C(=O)[C@@H]([C@H](C)CC)NC(=O)[C@@H]([C@H](C)CC)N(C)C(=O)[C@H](CC(C)C)NC(=O)[C@H]2CCCN2C(=O)[C@@H]2CCCN2C(=O)[C@H](C(C)C)NC(=O)[C@H]2CCCN2C1=O [Design D11.4, VAL PRO DPRO LEU *DILE DILE DPRO *PHE ILE DILE DPRO] (cyclo(I[dI][dP]VP[dP]L[dNMeI][dI][dP][NMeF])) | 4.99 | 3.83 | 6.55 |  | 1.64E-06 | 6.73E-07 | 1.47 |  |
| CC(C)C[C@@H]1NC(=O)[C@@H]2CCCN2C(=O)[C@@H](Cc2ccccc2)NC(=O)[C@H](C)N(C)C(=O)[C@H](CC(C)C)NC(=O)[C@H](CC(C)C)N(C)C(=O)[C@@H](C)NC(=O)[C@@H](CC(C)C)NC(=O)[C@@H]2CCCN2C(=O)[C@@H](Cc2ccccc2)NC1=O (single isomer, unassigned) [Design D10.2.p1, LEU DPHE PRO DLEU DALA *LEU LEU *ALA DPHE PRO] | 9.76 | 8.83 | 11.73 | 3.92E-06 | 4.51E-06 | 3.88E-06 |  |  |
| CC(C)C[C@@H]1C(=O)N(C)[C@@H](CC(C)C)C(=O)N2CCC[C@@H]2C(=O)N[C@H](CC(C)C)C(=O)N[C@H](C)C(=O)N2CCC[C@@H]2C(=O)N2CCC[C@H]2C(=O)N[C@@H](C)C(=O)N[C@H](Cc2ccccc2)C(=O)N[C@H](CC(C)C)C(=O)N[C@@H](C(C)C)C(=O)N1C (single isomer, unassigned) [Design D11.9.p2, VAL *DLEU *LEU DPRO DLEU DALA DPRO PRO ALA DPHE DLEU] | 4.03 | 2.62 | 4.02 | BQL | BQL | BQL |  |  |
